Some results are limits rather than exact numbers.

The test has as its target T1, N-terminal HiBiT tagged BCL6 (Homo sapiens, UniProt P41182).
T1 construct: expressed in transfected cells; host or cells: HT1080 (ATCC CCL-121), stably transduced with lentivirus pLV-UBC-N-HiBiT-BCL6-PGK-puro
Kind of test: HiBiT based degradation assay. In kind it is cell-based. The following applies: HT1080 cells expressing N-terminal HiBiT tagged BCL6, 5 hours of incubation; for Ymin (5 hr): BCL6 degradation normalized with DMSO control; for DC50: four-parameter logistic model, read-out: EC50 (5 hr). The procedure, abridged: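 Degradation measured by luminescence from the Nano-Glo HiBiT lytic reagent (15 min, room temperature), normalized to DMSO controls and fitted to a four-parameter curve.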
(HiBiT is a short tag that completes a luciferase, so light tracks the accessible tagged protein.)

For `CNC(=O)COc1cc2cc(Nc3nc(N4CCN(c5cccc6c(C7CCC(=O)NC7=O)nn(C)c56)CC4)ncc3Cl)cnc2n(C(C)C)c1=O` (centres unmarked) [Compound 166, 2-[[6-[[5-chloro-2-[4-[3-(2,6-dioxo-3-piperidyl)-1-methyl-indazol-7-yl]piperazin-1-yl]pyrimidin-4-yl]amino]-1-isopropyl-2-oxo-1,8-naphthyridin-3-yl]oxy]-N-methyl-acetamide], the “Ymin (5 hr)” value is reported as “+++ (30% ≤ Ymin < 50%)” and the DC50 was below 10 nM.
For `CNC(=O)COc1cc2cc(Nc3nc(N4CCC(F)(CN5CCC(c6ccc7c(C8CCC(=O)NC8=O)nn(C)c7c6)CC5)CC4)ncc3Cl)cnc2n(C(C)C)c1=O` (centres unmarked) [Compound 167, 2-[[6-[[5-chloro-2-[4-[[4-[3-(2,6-dioxo-3-piperidyl)-1-methyl-indazol-6-yl]-1-piperidyl]methyl]-4-fluoro-1-piperidyl]pyrimidin-4-yl]amino]-1-isopropyl-2-oxo-1,8-naphthyridin-3-yl]oxy]-N-methyl-acetamide] the same measures were “++++ (Ymin < 30%)” and below 10 nM.
For `CNC(=O)COc1cc2cc(Nc3nc(N4CCN(CC5CCN(c6cccc7c(C8CCC(=O)NC8=O)nn(C)c67)CC5)C[C@@H]4C)ncc3Cl)cnc2n(C(C)C)c1=O` (stereo partly drawn) [Compound 168a, 2-[[6-[[5-chloro-2-[(2S)-4-[[1-[3-(2,6-dioxo-3-piperidyl)-1-methyl-indazol-7-yl]-4-piperidyl]methyl]-2-methyl-piperazin-1-yl]pyrimidin-4-yl]amino]-1-isopropyl-2-oxo-1,8-naphthyridin-3-yl]oxy]-N-methyl-acetamide] the same measures were “+++ (30% ≤ Ymin < 50%)” and 10 to 100 nM.
As for `CNC(=O)COc1cc2cc(Nc3nc(N4CCN(CC5CCN(c6cccc7c(C8CCC(=O)NC8=O)nn(C)c67)CC5)C[C@H]4C)ncc3Cl)cnc2n(C(C)C)c1=O` (stereo partly drawn) [Compound 168b, 2-[[6-[[5-chloro-2-[(2R)-4-[[1-[3-(2,6-dioxo-3-piperidyl)-1-methyl-indazol-7-yl]-4-piperidyl]methyl]-2-methyl-piperazin-1-yl]pyrimidin-4-yl]amino]-1-isopropyl-2-oxo-1,8-naphthyridin-3-yl]oxy]-N-methyl-acetamide], the “Ymin (5 hr)” value is given as “+++ (30% ≤ Ymin < 50%)” and the DC50 lay within 10 to 100 nM.
Turning to `CNC(=O)COc1cc2cc(Nc3nc(N4CCC(CN5CCN(c6cccc7c(C8CCC(=O)NC8=O)nn(C)c67)[C@@H](C)C5)CC4)ncc3Cl)cnc2n(C(C)C)c1=O` (stereo partly drawn) [Compound 169a, 2-((6-((5-chloro-2-(4-(((3S)-4-(3-(2,6-dioxopiperidin-3-yl)-1-methyl-1H-indazol-7-yl)-3-methylpiperazin-1-yl)methyl)piperidin-1-yl)pyrimidin-4-yl)amino)-1-isopropyl-2-oxo-1,2-dihydro-1,8-naphthyridin-3-yl)oxy)-N-methylacetamide], the “Ymin (5 hr)” value is “++++ (Ymin < 30%)” and the DC50 is below 10 nM.
For `CNC(=O)COc1cc2cc(Nc3nc(N4CCC(CN5CCN(c6cccc7c(C8CCC(=O)NC8=O)nn(C)c67)[C@H](C)C5)CC4)ncc3Cl)cnc2n(C(C)C)c1=O` (stereo partly drawn) [Compound 169b, 2-((6-((5-chloro-2-(4-(((3R)-4-(3-(2,6-dioxopiperidin-3-yl)-1-methyl-1H-indazol-7-yl)-3-methylpiperazin-1-yl)methyl)piperidin-1-yl)pyrimidin-4-yl)amino)-1-isopropyl-2-oxo-1,2-dihydro-1,8-naphthyridin-3-yl)oxy)-N-methylacetamide], in that order: “++++ (Ymin < 30%)” and below 10 nM.
`CNC(=O)COc1cc2cc(Nc3nc(N4CCN(CC5CCN(c6cccc7c(C8CCC(=O)NC8=O)nn(C)c67)CC5)CC4)ncc3Cl)cnc2n(CC(F)(F)F)c1=O` (centres unmarked) [Compound 170, 2-[[6-[[5-chloro-2-[4-[[1-[3-(2,6-dioxo-3-piperidyl)-1-methyl-indazol-7-yl]-4-piperidyl]methyl]piperazin-1-yl]pyrimidin-4-yl]amino]-2-oxo-1-(2,2,2-trifluoroethyl)-1,8-naphthyridin-3-yl]oxy]-N-methyl-acetamide]: the “Ymin (5 hr)” value is “++++ (Ymin < 30%)” and the DC50 was 10 to 100 nM.
For `CNC(=O)COc1cc2cc(Nc3nc(N4CCC(C(C)(C)N5CCN(c6ccc7c(C8CCC(=O)NC8=O)nn(C)c7c6)CC5)CC4)ncc3Cl)cnc2n(C(C)C)c1=O` (centres unmarked) [Compound 171, 2-[[6-[[5-chloro-2-[4-[1-[4-[3-(2,6-dioxo-3-piperidyl)-1-methyl-indazol-6-yl]piperazin-1-yl]-1-methyl-ethyl]-1-piperidyl]pyrimidin-4-yl]amino]-1-isopropyl-2-oxo-1,8-naphthyridin-3-yl]oxy]-N-methyl-acetamide] the same measures were “++ (50% ≤ Ymin < 70%)” and below 10 nM.
For `CNC(=O)COc1cc2cc(Nc3nc(N4CCN(CC5CCN(c6cccc7c(C8CCC(=O)NC8=O)nn(C)c67)CC5)C(C)(C)C4)ncc3Cl)cnc2n(C(C)C)c1=O` (centres unmarked) [Compound 172, 2-[[6-[[5-chloro-2-[4-[[1-[3-(2,6-dioxo-3-piperidyl)-1-methyl-indazol-7-yl]-4-piperidyl]methyl]-3,3-dimethyl-piperazin-1-yl]pyrimidin-4-yl]amino]-1-isopropyl-2-oxo-1,8-naphthyridin-3-yl]oxy]-N-methyl-acetamide], in that order: “+++ (30% ≤ Ymin < 50%)” and 10 to 100 nM.
For `CNC(=O)COc1cc2cc(Nc3nc(N4C5CC4CN(CC4CCN(c6cccc7c(C8CCC(=O)NC8=O)nn(C)c67)CC4)C5)ncc3Cl)cnc2n(C(C)C)c1=O` (centres unmarked) [Compound 173, 2-[[6-[[5-chloro-2-[3-[[1-[3-(2,6-dioxo-3-piperidyl)-1-methyl-indazol-7-yl]-4-piperidyl]methyl]-3,6-diazabicyclo[3.1.1]heptan-6-yl]pyrimidin-4-yl]amino]-1-isopropyl-2-oxo-1,8-naphthyridin-3-yl]oxy]-N-methyl-acetamide] the same measures were “++ (50% ≤ Ymin < 70%)” and 10 to 100 nM.
As for `CNC(=O)COc1cc2cc(Nc3nc(N4C[C@H]5C[C@@H]4CN5CC4CCN(c5cccc6c(C7CCC(=O)NC7=O)nn(C)c56)CC4)ncc3Cl)cnc2n(C(C)C)c1=O` (stereo partly drawn) [Compound 174a, 2-[[6-[[5-chloro-2-[(1R,4R)-5-[[1-[3-(2,6-dioxo-3-piperidyl)-1-methyl-indazol-7-yl]-4-piperidyl]methyl]-2,5-diazabicyclo[2.2.1]heptan-2-yl]pyrimidin-4-yl]amino]-1-isopropyl-2-oxo-1,8-naphthyridin-3-yl]oxy]-N-methyl-acetamide], the “Ymin (5 hr)” value is “++ (50% ≤ Ymin < 70%)” and the DC50 was below 10 nM.
`CNC(=O)COc1cc2cc(Nc3nc(N4C[C@@H]5C[C@H]4CN5CC4CCN(c5cccc6c(C7CCC(=O)NC7=O)nn(C)c56)CC4)ncc3Cl)cnc2n(C(C)C)c1=O` (stereo partly drawn) [Compound 174b, 2-[[6-[[5-chloro-2-[(1S,4S)-5-[[1-[3-(2,6-dioxo-3-piperidyl)-1-methyl-indazol-7-yl]-4-piperidyl]methyl]-2,5-diazabicyclo[2.2.1]heptan-2-yl]pyrimidin-4-yl]amino]-1-isopropyl-2-oxo-1,8-naphthyridin-3-yl]oxy]-N-methyl-acetamide]: the “Ymin (5 hr)” value is “+++ (30% ≤ Ymin < 50%)” and the DC50 was in the range of 10 to 100 nM.
For the compound `CNC(=O)COc1cc2cc(Nc3nc(N4CCC(CN5C[C@H]6C[C@@H]5CN6c5cccc6c(C7CCC(=O)NC7=O)nn(C)c56)CC4)ncc3Cl)cnc2n(C(C)C)c1=O` (stereo partly drawn) [Compound 175a, 2-[[6-[[5-chloro-2-[4-[[(1R,4R)-5-[3-(2,6-dioxo-3-piperidyl)-1-methyl-indazol-7-yl]-2,5-diazabicyclo[2.2.1]heptan-2-yl]methyl]-1-piperidyl]pyrimidin-4-yl]amino]-1-isopropyl-2-oxo-1,8-naphthyridin-3-yl]oxy]-N-methyl-acetamide], the “Ymin (5 hr)” value is “+++ (30% ≤ Ymin < 50%)” and the DC50 is below 10 nM.
For `CNC(=O)COc1cc2cc(Nc3nc(N4CCC(CN5C[C@@H]6C[C@H]5CN6c5cccc6c(C7CCC(=O)NC7=O)nn(C)c56)CC4)ncc3Cl)cnc2n(C(C)C)c1=O` (stereo partly drawn) [Compound 175b, 2-[[6-[[5-chloro-2-[4-[[(1S,4S)-5-[3-(2,6-dioxo-3-piperidyl)-1-methyl-indazol-7-yl]-2,5-diazabicyclo[2.2.1]heptan-2-yl]methyl]-1-piperidyl]pyrimidin-4-yl]amino]-1-isopropyl-2-oxo-1,8-naphthyridin-3-yl]oxy]-N-methyl-acetamide], in that order: “+++ (30% ≤ Ymin < 50%)” and below 10 nM.
For `CNC(=O)COc1cc2cc(Nc3nc(N4CC[C@H](CN5CCN(c6ccc7c(C8CCC(=O)NC8=O)nn(C)c7c6)CC5)[C@H](C)C4)ncc3Cl)cnc2n(C(C)C)c1=O` (stereo partly drawn) [Compound 176a, 2-((6-((5-chloro-2-((3S,4S)-4-((4-(3-(2,6-dioxopiperidin-3-yl)-1-methyl-1H-indazol-6-yl)piperazin-1-yl)methyl)-3-methylpiperidin-1-yl)pyrimidin-4-yl)amino)-1-isopropyl-2-oxo-1,2-dihydro-1,8-naphthyridin-3-yl)oxy)-N-methylacetamide] the same measures were “+++ (30% ≤ Ymin < 50%)” and below 10 nM.
For `CNC(=O)COc1cc2cc(Nc3nc(N4CC[C@H](CN5CCN(c6ccc7c(C8CCC(=O)NC8=O)nn(C)c7c6)CC5)[C@@H](C)C4)ncc3Cl)cnc2n(C(C)C)c1=O` (stereo partly drawn) [Compound 176b, 2-((6-((5-chloro-2-((3R,4S)-4-((4-(3-(2,6-dioxopiperidin-3-yl)-1-methyl-1H-indazol-6-yl)piperazin-1-yl)methyl)-3-methylpiperidin-1-yl)pyrimidin-4-yl)amino)-1-isopropyl-2-oxo-1,2-dihydro-1,8-naphthyridin-3-yl)oxy)-N-methylacetamide] the same measures were “+++ (30% ≤ Ymin < 50%)” and below 10 nM.

The record behind these values is patent US20260241012A1, “1,8-NAPHTHYRIDIN-2-ONE HETEROBIFUNCTIONAL BCL6 DEGRADERS” (Treeline Biosciences, Inc., priority 2022, published 2026).
